Data from patent publication US20240199648A1, “MAP4K1 INHIBITORS” (Blueprint Medicines Corporation, priority 2021, published 2024).

How the values were obtained:
Primary T Cell = experiment: T cell enhancement of cytokines: IL2 measurement (HTRF) in expanded CD3+ T cells stimulated with anti-CD3/anti-CD28; type: cell-based, human; conditions: Homo sapiens, T-cell, 24 h, plate-bound anti-CD3 and soluble anti-CD28, 24 h, read-out: IL-2 Primary T Cell EC50
Protocol: T cells are isolated from whole blood of healthy donors by immunomagnetic negative selection following manufacture's protocol (StemCell Technologies, human T cell isolation kit). Purity of isolated cells is assessed by flow cytometry and yields 95-98% CD3^+ T cells. For expansion of T cells, 1×10^6 cells/well are plated in serum free cell expansion media (ThermoFisher) containing 30U of recombinant human IL2 (R&D) and stimulated with 25 ul of CD3/CD28 beads (Invitrogen) in 24 well plates for 3-4 days. T cells are then expanded in 175 cm flasks and maintained at a cell density of 1 to 2.5×10^6 cells/ml days by addition of ⅔ of fresh media every 2-3 days. After 10-14 days, cells are frozen in BamBanker freezing media (Thermo) and stored in liquid nitrogen.
For IL2 measurement, expanded CD3+ T cells are dispensed at 100K cells/well (cultured in X-VIVO 10 Serum-free media) and are stimulated with plate-bound anti-CD3 and soluble anti-CD28 in the presence of vehicle or compound of the disclosure at various concentrations for 24 h. As outlined in the manufacturer's protocol (Cisbio), 16 μL of conditioned media is transferred to a white 384-well low volume plate. Following a 24 h incubation with the anti-IL2 antibodies, the homogenous time resolved fluorescence (HTRF) is measured.

MAP4K1 (HPK1) = molecular target: T1, MAP4K1 (HPK1) (Homo sapiens, UniProt Q92918); experiment: Inhibition of MAP4K1 biochemical enzymatic activity (EZReader 2 electrophoretic mobility shift assay); conditions: HPK1 (Invitrogen), S6K2tide 1.5 μM, 120 min; ATP 26 μM or 1000 μM (not stated which)
T1 construct: purchased Invitrogen
T1 sequence (Q92918 whole entry): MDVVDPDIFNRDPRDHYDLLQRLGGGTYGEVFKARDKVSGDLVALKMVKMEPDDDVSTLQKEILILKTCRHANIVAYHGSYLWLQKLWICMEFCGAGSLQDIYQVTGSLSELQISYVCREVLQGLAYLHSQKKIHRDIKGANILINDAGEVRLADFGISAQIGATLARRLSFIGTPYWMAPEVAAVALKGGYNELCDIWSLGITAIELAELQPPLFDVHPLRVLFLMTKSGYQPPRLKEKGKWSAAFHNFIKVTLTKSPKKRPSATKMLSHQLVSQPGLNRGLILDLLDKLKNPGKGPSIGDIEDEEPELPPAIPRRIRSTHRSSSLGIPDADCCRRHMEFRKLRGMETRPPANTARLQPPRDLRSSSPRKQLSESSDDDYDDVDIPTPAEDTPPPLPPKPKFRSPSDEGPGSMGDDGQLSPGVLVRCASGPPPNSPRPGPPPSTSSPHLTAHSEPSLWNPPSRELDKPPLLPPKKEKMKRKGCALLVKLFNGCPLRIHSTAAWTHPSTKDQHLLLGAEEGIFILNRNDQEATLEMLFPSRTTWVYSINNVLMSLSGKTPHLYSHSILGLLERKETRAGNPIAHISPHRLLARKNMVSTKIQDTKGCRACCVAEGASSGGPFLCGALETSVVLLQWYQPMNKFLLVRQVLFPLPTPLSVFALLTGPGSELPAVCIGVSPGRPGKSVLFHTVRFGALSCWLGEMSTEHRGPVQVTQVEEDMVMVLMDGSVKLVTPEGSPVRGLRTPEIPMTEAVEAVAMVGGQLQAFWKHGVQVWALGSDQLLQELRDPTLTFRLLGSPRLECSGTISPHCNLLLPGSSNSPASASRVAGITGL
From the text: MAP4K1 (HPK1) and relevant off-target enzymatic activity was monitored using the Perkin Elmer electrophoretic mobility shift technology platform—the EZReader 2. […] Within the linear, steady-state phase of the kinase enzymatic reaction, the mixed pool of phosphorylated (product) and non-phosphorylated (substrate) peptides was passed through the microfluidic system of the PerkinElmer EZ Reader 2, under an applied electric potential difference. The presence of the phosphate group on the product peptide provided a difference in mass and charge between that of the substrate peptide, resulting in a separation of the substrate and product pools in the sample (Perrin et al. 2010). As the product and substrate peptide mixture passes the lasers within the instrument, these pools are detected (λex=488 nm, λem=568 nm) and resolved as separate peaks. The ratio between these peaks reflects the activity of the compound at that concentration, in that well, under those conditions.
Inhibitors were dissolved in 100% DMSO at a stock concentration of 10 mM. A 100×, 10-point, 4-fold serial dilution of each inhibitor was created in 100% DMSO either manually or on a Hamilton STAR liquid handler, starting at a relevant concentration, usually 1 mM. A volume of 0.130 μL of each concentration was transferred to the relevant wells of a 384-well plate (Greiner 781 201) in diplicate using a TTPLabtech Mosquito nano-litre dispenser. Using a Multidrop Combi, the remaining constituents of the kinase reaction were added to the 130 nL of dosed compound as follows (see table below for final reaction details):
Enzyme activity assays at the ^APPKM for ATP or 1 mM ATP: In each well of a 384-well plate, 0.1-15 nM of untreated enzyme was incubated in a total of 13 μL of buffer (100 mM HEPES pH 7.5, 0.015% Brij 35, 10 mM MgCl2, 1 mM DTT) with 1.5 μM fluorescent peptid and 20-1000 μM ATP, at 25° C., for 60-180 minutes in the presence or absence of a dosed concentration series of compound (1% DMSO final concentration). The kinase reactions were stopped by the addition of 70 μl of Stop buffer (100 mM HEPES pH 7.5, 0.015% Brij 35, 35 mM EDTA and 0.2% of Coating Reagent 3 (Caliper Lifesciences)). The plates were read on a Caliper EZReader 2 as described above.

SMILES	EC50 (Primary T Cell) [nM]	IC50 (MAP4K1 (HPK1)) [nM]
C[C@@H]1OC(=O)c2ccc(Nc3cc4c(C(C)(C)N)cnc(OC5CN(C(=O)C6CC6)C5)c4cn3)nc2[C@H]1C [Compound 5]	17.7	0.17
CC(=O)N1C[C@@H](Oc2ncc(C(C)(C)N)c3cc(Nc4ccc5c(n4)[C@@H](C)C(C)(C)OC5=O)ncc23)[C@@H]1C [Compound 7]	22.3	0.12
C[C@@H]1OC(=O)c2ccc(Nc3cc4c(C(C)(C)N)cnc(OC5CN(C(=O)[C@H]6C[C@H]6F)C5)c4cn3)nc2[C@H]1C [Compound 9]	16.8	0.16
C[C@@H]1OC(=O)c2ccc(Nc3cc4c(C(C)(C)N)cnc(OC5CN(C(=O)[C@@H]6C[C@@H]6F)C5)c4cn3)nc2[C@H]1C [Compound 10]	8.1	0.13
C[C@@H]1c2nc(Nc3cc4c(C(C)(C)N)cnc(O[C@@H]5CN(C(=O)[C@@H]6C[C@@H]6F)[C@H]5C)c4cn3)ccc2C(=O)OC1(C)C [Compound 14]	15.3	0.19
COC1CN(C(=O)[C@H]2C[C@@H](Oc3ncc(C(C)(C)N)c4cc(Nc5ccc6c(n5)[C@@H](C)C(C)(C)OC6=O)ncc34)C2)C1 [Compound 15, (R)-2-((5-(2-aminopropan-2-yl)-8-((cis)-3-(3-methoxyazetidine-1-carbonyl)cyclobutoxy)-2,7-naphthyridin-3-yl)amino)-7,7,8-trimethyl-7,8-dihydro-5H-pyrano[4,3-b]pyridin-5-one]	42	0.13
CC(=O)N1CC(Oc2ccc(C(C)(C)N)c3cc(Nc4ccc5c(n4)[C@@H](C)[C@H](C)OC5=O)ncc23)C1 [Compound 19]	41.1	0.2
CC(=O)N1CC(Oc2ccc(C(C)(C)N)c3cc(Nc4ccc5c(n4)[C@@H](C)C(C)(C)OC5=O)ncc23)C1 [Compound 21, (R)-2-((8-((1-Acetylazetidin-3-yl)oxy)-5-(2-aminopropan-2-yl)isoquinolin-3-yl)amino)-7,7,8-trimethyl-7,8-dihydro-5H-pyrano[4,3-b]pyridin-5-one]	16.8	0.14
CC(=O)N1CC(Nc2ncc(C(C)(C)N)c3cc(Nc4ccc5c(n4)[C@@H](C)C(C)(C)OC5=O)ncc23)C1 [Compound 22]	479	0.54
C[C@@H]1OC(=O)c2ccc(Nc3cc4c(C(C)(C)N)ccc(OC5CN(C(=O)C6CC6)C5)c4cn3)nc2[C@H]1C [Compound 29]	11	0.12
C[C@@H]1c2nc(Nc3cc4c(C(C)(C)N)cnc(OCCN5CCCC5=O)c4cn3)ccc2C(=O)OC1(C)C [Compound 31]	42.8	0.21
C[C@@H]1OC(=O)c2ccc(Nc3cc4c(C(C)(C)N)cnc(O[C@H]5C[C@@H](C(=O)N(C)C)C5)c4cn3)nc2[C@H]1C [Compound 33]	9.2	0.15
C[C@@H]1OC(=O)c2ccc(Nc3cc4c(C(C)(C)N)cnc(OC5CN(C(=O)N(C)C)C5)c4cn3)nc2[C@H]1C [Compound 34]	43.3	0.19
C[C@@H]1c2nc(Nc3cc4c(C(C)(C)N)cnc(OCCCC(=O)N(C)C)c4cn3)ccc2C(=O)OC1(C)C [Compound 39]	14	0.14
CC[C@@](C)(N)c1cnc(OC2CN(C(=O)C3CC3)C2)c2cnc(Nc3ccc4c(n3)[C@@H](C)[C@H](C)OC4=O)cc12 [Compound 49]	25.7	0.24
C[C@@H]1OC(=O)c2ccc(Nc3cc4c(C(C)(C)N)cnc(OC5CN(C(=O)C6COC6)C5)c4cn3)nc2[C@H]1C [Compound 54]	29.3	0.21
CC(C)(N)c1cnc(OC2CN(C(=O)C3CC3)C2)c2cnc(Nc3ccc4c(n3)C3(CC3)C(C)(C)OC4=O)cc12 [Compound 63]	23.2	0.19
C[C@@H]1c2nc(Nc3cc4c(C(C)(C)N)cnc(O[C@@H]5CN(C(=O)C6CC6)[C@H]5C)c4cn3)ccc2C(=O)OC1(C)C [Compound 65]	17.5	0.2
C[C@@H]1OC(=O)c2ccc(Nc3cc4c(C(C)(C)N)cnc(OC5CN(C(=O)[C@@H]6CCCO6)C5)c4cn3)nc2[C@H]1C [Compound 76]	47.3	0.17
COC[C@@](C)(N)c1cnc(OC2CN(C(=O)C3CC3)C2)c2cnc(Nc3ccc4c(n3)[C@@H](C)[C@H](C)OC4=O)cc12 [Compound 80]	62.9	0.17
C[C@@H]1OC(=O)c2ccc(Nc3cc4c(C(C)(C)N)cnc(OC5CN(C(=O)[C@@H]6C[C@@H]6F)[C@H]5C)c4cn3)nc2[C@H]1C (stereo partly drawn) [Compound 85]	17.8	0.1
COC1CN(C(=O)[C@H]2C[C@@H](Oc3ncc(C(C)(C)N)c4cc(Nc5ccc6c(n5)[C@@H](C)[C@H](C)OC6=O)ncc34)C2)C1 [Compound 92]	34	0.17

The next lines start with the values.

EC50 (Primary T Cell) [nM]	IC50 (MAP4K1 (HPK1)) [nM]	SMILES
19.9	0.15	CC(=O)N1CC(Oc2ncc(C(C)(C)N)c3cc(Nc4ccc5c(n4)[C@@H](C)C(C)(C)OC5=O)ncc23)C1 [Compound 4, (R)-2-((8-((1-Acetylazetidin-3-yl)oxy)-5-(2-aminopropan-2-yl)-2,7-naphthyridin-3-yl)amino)-7,7,8-trimethyl-7,8-dihydro-5H-pyrano[4,3-b]pyridin-5-one]
22.5	0.2	CCC(=O)N1CC(Oc2ncc(C(C)(C)N)c3cc(Nc4ccc5c(n4)[C@@H](C)C(C)(C)OC5=O)ncc23)C1 [Compound 6]
32.7	0.16	C[C@@H]1c2nc(Nc3cc4c(C(C)(C)N)cnc(OC5CN(C(=O)C6CC6)C5)c4cn3)ccc2C(=O)OC1(C)C [Compound 8]
10.5	0.16	C[C@@H]1c2nc(Nc3cc4c(C(C)(C)N)cnc(OC5CN(C(=O)[C@@H]6C[C@@H]6F)C5)c4cn3)ccc2C(=O)OC1(C)C [Compound 12]
23.2	0.17	C[C@@H]1c2nc(Nc3cc4c(C(C)(C)N)cnc(OC5CN(C(=O)[C@H]6C[C@H]6F)C5)c4cn3)ccc2C(=O)OC1(C)C [Compound 13, (R)-2-((5-(2-aminopropan-2-yl)-8-((1-((1R,2R)-2-fluorocyclopropane-1-carbonyl)azetidin-3-yl)oxy)-2,7-naphthyridin-3-yl)amino)-7,7,8-trimethyl-7,8-dihydro-5H-pyrano[4,3-b]pyridin-5-one]
23.8	0.17	COC[C@@](C)(N)c1ccc(OC2CN(C(C)=O)C2)c2cnc(Nc3ccc4c(n3)[C@@H](C)C(C)(C)OC4=O)cc12 [Compound 56]
21.1	0.13	C[C@@H]1c2nc(Nc3cc4c(C(C)(C)N)cnc(OC5CN(C(=O)N(C)C)C5)c4cn3)ccc2C(=O)OC1(C)C [Compound 57]
107	0.29	COC[C@@](C)(N)c1cnc(OC2CN(C(C)=O)C2)c2cnc(Nc3ccc4c(n3)[C@@H](C)C(C)(C)OC4=O)cc12 [Compound 62]
12.5	0.18	CC[C@@](C)(N)c1cnc(OC2CN(C(=O)C3CC3)C2)c2cnc(Nc3ccc4c(n3)[C@@H](C)C(C)(C)OC4=O)cc12 [Compound 70]
30.5	0.21	C[C@@H]1c2nc(Nc3cc4c(C(C)(C)N)cnc(OC5CN(C(=O)N6CCC6)C5)c4cn3)ccc2C(=O)OC1(C)C [Compound 72]
47.8	0.36	C[C@@H]1c2nc(Nc3cc4c(C(C)(C)N)cnc(OC5CN(C(=O)C6COC6)C5)c4cn3)ccc2C(=O)OC1(C)C [Compound 77]
